From the supplement of paper PMC10307832

Assays:
Assay in all cases: relative viability (nuclei count vs DMSO), 5 days (fraction); higher = more cells survive
Ibrutinib + Alpelisib = compound: C=CC(=O)N1CCC[C@@H](n2nc(-c3ccc(Oc4ccccc4)cc3)c3c(N)ncnc32)C1 [Ibrutinib] + Cc1nc(NC(=O)N2CCC[C@H]2C(N)=O)sc1-c1ccnc(C(C)(C)C(F)(F)F)c1 [Alpelisib] (partner 2 µM)
Outline: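 A single step with final 0.05% Triton X-100, 1% formaldehyde and 1 ug/ml Hoechst fixed the cells and stained nuclei 5 days after treatment. Lung cancer cell lines in 1536-well plates had been treated by pin tool the day after seeding with one drug alone or a fixed anchor-drug dose plus five library-drug doses (not always all listed) in √10 steps, and nuclei were counted on 4× images. Relative viability is the ratio of nuclei in treated wells to nuclei in vehicle wells, taken as the median of duplicate plates.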

PAC-1 = compound: C=CCc1cccc(/C=N/NC(=O)CN2CCN(Cc3ccccc3)CC2)c1O [PAC-1]
Outline: (§1)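 Cells of lung cancer lines were placed in 1536-well plates and kept overnight at 37 °C. Pinning then delivered five library-drug doses (not always all listed), spaced by √10, onto plates anchored with vehicle, and the cells were left 5 days without changing medium. One step fixed, permeabilised and stained them with Hoechst, and MetaXpress counted nuclei in 4× images. Viability, as a median over plates, is treated-well nuclei divided by vehicle-well nuclei, with acceptance only at control CV below 25% and at least one doubling.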

BMX-IN-1 = compound: C=CC(=O)Nc1cc(-n2c(=O)ccc3cnc4ccc(-c5ccc(NS(C)(=O)=O)cc5)cc4c32)ccc1C [BMX-IN-1]
Outline: as §1

Ibrutinib = compound: C=CC(=O)N1CCC[C@@H](n2nc(-c3ccc(Oc4ccccc4)cc3)c3c(N)ncnc32)C1 [Ibrutinib]
Outline: as §1

| Cell Line | relative viability (Ibrutinib + Alpelisib; first compound 0.005 µM) | relative viability (Ibrutinib + Alpelisib; first compound 0.01581 µM) | relative viability (Ibrutinib + Alpelisib; first compound 0.05 µM) | relative viability (Ibrutinib + Alpelisib; first compound 0.1581 µM) | relative viability (Ibrutinib + Alpelisib; first compound 0.5 µM) | relative viability (PAC-1; 0.02 µM) | relative viability (PAC-1; 0.06325 µM) | relative viability (PAC-1; 0.2 µM) | relative viability (PAC-1; 2 µM) | relative viability (BMX-IN-1; 0.02 µM) | relative viability (BMX-IN-1; 0.2 µM) | relative viability (BMX-IN-1; 0.6325 µM) | relative viability (BMX-IN-1; 2 µM) | relative viability (Ibrutinib; 0.005 µM) | relative viability (Ibrutinib; 0.01581 µM) | relative viability (Ibrutinib; 0.05 µM) | relative viability (Ibrutinib; 0.1581 µM) | relative viability (Ibrutinib; 0.5 µM) |
| --- | --- | --- | --- | --- | --- | --- | --- | --- | --- | --- | --- | --- | --- | --- | --- | --- | --- | --- |
| SK-LU-1 | 0.751 | 1.06 | 1.31 | 1.06 | 1.06 | 1 | 1.02 | 0.975 | 0.999 | 1.22 | 1.23 | 1.16 | 1.1 | 0.944 | 0.954 | 0.987 | 1.02 | – |
| NCI-H2170 | 0.728 | 0.362 | 0.278 | 0.773 | 0.231 | 1.02 | 0.978 | 0.99 | 0.962 | 1.14 | 1.05 | 1.05 | 1.02 | 0.678 | 0.85 | 0.803 | 0.939 | 0.462 |
| RERF-LC-KJ | 0.526 | 0.731 | 0.791 | 0.638 | 0.585 | 1.08 | 1 | 0.947 | 0.942 | 1.14 | 1.04 | 1.03 | 1.03 | 1.03 | 0.85 | 0.942 | 0.989 | 0.849 |
| LXF-289 | – | 1.03 | – | – | 0.908 | 0.974 | 1.01 | 0.997 | 1.01 | 1.06 | 1.05 | 1.01 | 1.02 | 1.06 | 1.01 | 1.04 | 0.972 | 0.973 |
| LC-2-ad | 0.874 | 0.944 | 0.936 | 0.836 | 0.758 | 1.01 | 1.04 | 1.01 | 0.974 | 1.1 | 1.05 | 1.08 | 1.02 | 0.996 | 0.973 | 0.941 | 0.905 | 0.995 |
| NCI-H23 | 0.514 | 0.695 | 0.566 | 0.76 | 0.6 | 0.845 | 1.03 | 0.921 | 1.13 | 0.963 | 1.1 | 1.16 | 1.09 | 0.829 | 0.897 | 0.912 | 0.761 | 0.977 |
